According to patent US20190000760A1, “NANOPARTICLE-AQUEOUS DISPERSION LIQUID OF GLYCOSPHINGOLIPID” (REGiMMUNE Corporation, priority 2015, published 2019):

Assay: Average particle size and particle distribution by dynamic light scattering (Zetasizer Nano ZS)
Format: physicochemical
Details: for average particle size / particle distribution: DMSO as organic solvent
Protocol: (§1) KRN7000 was weighed in a test tube, 99.5% ethanol was added to adjust the concentration to 4 mg/mL, and the mixture was then heated to 76° C. to completely dissolve the KRN7000, so that a glycosphingolipid solution was obtained (the same applies for RCAI-56 or RCAI-61). On the other hand, inulin was weighed in a test tube, sterilized distilled water was added to adjust the concentration to 35 mg/mL, and the inulin was then completely dissolved to obtain an inulin solution. 50 μL of the glycosphingolipid solution was transferred to an additionally provided test tube, 950 μL of the inulin solution was added thereto, and quickly mixed by vortex, the mixture was left standing overnight at room temperature, and an equal amount of pure water was then added to reduce the concentration to ½. For the obtained dispersion solution, the average particle size and particle distribution were measured by a dynamic light scattering method (Zetasizer Nano ZS, Malvern). […] The final components of the glycosphingolipid hydrophilic protective colloidal solution obtained by this method, and the concentrations thereof are as follows: 0.1 mg/mL of glycosphingolipid, 17.5 mg/mL of inulin and 2.5% of ethanol.
as §1, with “pullulan” for “inulin”, “10” for “35”, “a pullulan” for “an inulin”, “glycosphingolipid” for “glycosphingolipid hydrophilic”, “5.0” for “17.5”
as §1, with “HPMC” for “inulin”, “1” for “35”, “a HPMC” for “an inulin”, “glycosphingolipid” for “glycosphingolipid hydrophilic”, “0.5” for “17.5”
Preparation of a hydrophobic colloidal solution of a glycosphingolipid using DMSO as an organic solvent was examined. KRN7000 was weighed in a test tube, DMSO was added to adjust the concentration to 2 mg/mL, and the mixture was heated to 85° C. to completely dissolve the KRN7000, so that a glycosphingolipid solution was obtained. […]

[1] = inulin, 0.4 mg/mL glycosphingolipid, 28 mg/mL inulin, 20% DMSO
[2] = Protective colloid: HPMC, 0.1 mg/mL glycosphingolipid, 0.5 mg/mL HPMC, 2.5% ethanol
[3] = Protective colloid: Inulin, 0.1 mg/mL glycosphingolipid, 17.5 mg/mL inulin, 2.5% ethanol
[4] = Protective colloid: None, glycosphingolipid dissolved in ethanol, mixed with water
[5] = Protective colloid: Pullulan, 0.1 mg/mL glycosphingolipid, 5.0 mg/mL pullulan, 2.5% ethanol

average particle size [1] | particle distribution [1] | average particle size (protective colloid not used) | particle distribution (protective colloid not used) | Average particle size (diameter, nm) [2] | Particle size distribution [2] | Average particle size (diameter, nm) [3] | Particle size distribution [3] | Average particle size (diameter, nm) [4] | Particle size distribution [4] | Average particle size (diameter, nm) [5] | Particle size distribution [5] | Compound
345.5 nm | monodispersed particles | large average particle size | polydispersed particles | 192 nm | Monodispersed | 156 nm | Monodispersed | 1536 nm | Polydispersed | 149 nm | Monodispersed | CCCCCCCCCCCCCCCCCCCCCCCCCC(=O)N[C@@H](CO[C@H]1O[C@H](CO)[C@H](O)[C@H](O)[C@H]1O)[C@H](O)[C@H](O)CCCCCCCCCCCCCC [KRN7000, (2S,3S,4R)-1-O-(α-D-galactosyl)-N-hexacosanoyl-2-amino-1,3,4-octadecanetriol]
– | – | – | – | 380 nm | Monodispersed | 169 nm | Monodispersed | 435 nm | Polydispersed | 174 nm | Monodispersed | CCCCCCCCCCCCCCCCCCCCCCCCCC(=O)N[C@@H](CO[C@H]1CC(CO)[C@H](O)[C@H](O)C1O)[C@H](O)[C@H](O)CCCCCCCCCCCCCC (stereo partly shown) [RCAI-56]
– | – | – | – | 191 nm | Monodispersed | 298 nm | Monodispersed | 683 nm | Polydispersed | 151 nm | Monodispersed | CCCCCCCCCCCCCCCCCCCCCCCCCC(=O)N[C@@H](CO[C@H]1O[C@H](COC)[C@H](O)[C@H](O)[C@H]1O)[C@H](O)[C@H](O)CCCCCCCCCCCCCC [RCAI-61]
